# Test system: melanoma cells (D10)
# Assay: Membrane turnover assay (FM1-43 uptake by FACS in CTL/target cell conjugates)
# Assay type: cell-based, human
# Details: D10 cells loaded with antigenic peptide, pretreated 2 h with 50 μM BAPTA-AM, alone or after 5 min conjugation with CTL; compared with untreated cells
# Experimental: Loading of target cells: Target cells were left unpulsed or pulsed with 10 μM antigenic peptide during 2 h at 37° C./5% CO2. Cells were washed three times, re-suspended at 15×10^3 to 30×10^3 cells in 25 μl RPMI/5% FCS/HEPES and transferred to a 96-well U-bottom plate.
# In some experiments, D10 cells were pretreated (2 h) or not with 50 μM BAPTA-AM (ThermoFisher Scientific).
# CTL staining: CTL were stained with 10 μM CellTrace Violet (CTV, ThermoFisher Scientific) for 30 min at 37° C./5% CO2, washed three times and re-suspended at 30×10^3 to 60×10^3 cells per 25 μl RPMI/5% FCS/HEPES.
# Conjugation of CTL and target cells: 25 μl of CTL (previously stained with CTV) were added in wells containing pulsed or unpulsed target cells at 2:1 CTL/target cell ratio. Target cells were previously added to three 96-U-bottom plates (one plate per time point: 2, 5 or 15 minutes). A pre-diluted solution of FM1-43 (ThermoFisher Scientific) was prepared at 20 μg/ml. 50 μl of this solution were added to wells containing in 50 μl the cells of interest to have a final concentration of 10 μg/ml. The FM1-43 solution was added to wells at the same time of CTL. Cells were pelleted during 1 minute at 455 g and incubated at 37° C./5% CO2 for 2, 5 or 15 minutes.
# At the end of the incubation time, 100 μl cold FACS buffer (PBS 1% FBS 1% HS 0.1% azide) supplemented with 0.5 mM EDTA were added to each well on ice. […]
structure (smiles),measurement,value
CC(=O)OCOC(=O)CN(CC(=O)OCOC(C)=O)c1ccccc1OCCOc1ccccc1N(CC(=O)OCOC(C)=O)CC(=O)OCOC(C)=O [BAPTA-AM],FM1-43 uptake (fluorescence intensity) in melanoma cells,decrease of FM1-43 uptake

# Reference: patent publication US20220018828A1, “METHODS AND KIT FOR ASSAYING LYTIC POTENTIAL OF IMMUNE EFFECTOR CELLS” (INSERM (INSTITUT NATIONAL DE LA SANTÉ ET LA RECHERCHE …, priority 2018, published 2022)
